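Interpolation was linear, between the two tested concentrations surrounding the appropriate level; five concentrations were tested over 48 hours in 96-well plates. GI50: concentration for 50% inhibition of growth. The concentration for full growth arrest is given as TGI.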
What was measured:
Assay in all cases: growth of human tumour cells (NCI), 48 h
786-0 renal = test system: 786-0 renal
A498 renal = test system: A498 renal
A549 NSCLC = test system: A549 NSCLC
ACHN renal = test system: ACHN renal
BT-549 breast = test system: BT-549 breast
CAKI-1 renal = test system: CAKI-1 renal
CCRF-CEM leukemia = test system: CCRF-CEM leukemia
COLO 205 colon = test system: COLO 205 colon
DU-145 prostate = test system: DU-145 prostate
EKVX NSCLC = test system: EKVX NSCLC
HCC-2998 colon = test system: HCC-2998 colon
HCT-116 colon = test system: HCT-116 colon
HCT-15 colon = test system: HCT-15 colon
HL-60(TB) leukemia = test system: HL-60(TB) leukemia
HOP-62 NSCLC = test system: HOP-62 NSCLC
HOP-92 NSCLC = test system: HOP-92 NSCLC
HS 578T breast = test system: HS 578T breast
HT29 colon = test system: HT29 colon
IGROV1 ovarian = test system: IGROV1 ovarian
K-562 leukemia = test system: K-562 leukemia
KM12 colon = test system: KM12 colon
LOX IMVI melanoma = test system: LOX IMVI melanoma
M14 melanoma = test system: M14 melanoma
MALME-3M melanoma = test system: MALME-3M melanoma
MCF7 breast = test system: MCF7 breast
MDA-MB-231 breast = test system: MDA-MB-231 breast
MDA-MB-435 = test system: MDA-MB-435
MDA-MB-468 breast = test system: MDA-MB-468 breast
MOLT-4 leukemia = test system: MOLT-4 leukemia
NCI-H226 lung = test system: NCI-H226 lung
NCI-H23 lung = test system: NCI-H23 lung
NCI-H460 lung = test system: NCI-H460 lung
NCI-H522 lung = test system: NCI-H522 lung
NCI/ADR-RES ovarian = test system: NCI/ADR-RES ovarian
OVCAR-3 ovarian = test system: OVCAR-3 ovarian
OVCAR-4 ovarian = test system: OVCAR-4 ovarian
OVCAR-5 ovarian = test system: OVCAR-5 ovarian
OVCAR-8 ovarian = test system: OVCAR-8 ovarian
PC-3 prostate = test system: PC-3 prostate
RPMI-8226 leukemia = test system: RPMI-8226 leukemia
RXF 393 renal = test system: RXF 393 renal
SF-268 CNS = test system: SF-268 CNS
SF-295 CNS = test system: SF-295 CNS
SF-539 CNS = test system: SF-539 CNS
SK-MEL-2 melanoma = test system: SK-MEL-2 melanoma
SK-MEL-28 melanoma = test system: SK-MEL-28 melanoma
SK-MEL-5 melanoma = test system: SK-MEL-5 melanoma
SK-OV-3 ovarian = test system: SK-OV-3 ovarian
SN12C renal = test system: SN12C renal
SNB-19 CNS = test system: SNB-19 CNS
SNB-75 CNS = test system: SNB-75 CNS
SR leukemia = test system: SR leukemia
SW-620 colon = test system: SW-620 colon
T-47D breast = test system: T-47D breast
TK-10 renal = test system: TK-10 renal
U251 CNS = test system: U251 CNS
UACC-257 melanoma = test system: UACC-257 melanoma
UACC-62 melanoma = test system: UACC-62 melanoma
UO-31 renal = test system: UO-31 renal

Cc1ccc(-c2nc3ccc(C(=O)N=Nc4c(O)[nH]c5ccc(Cl)cc45)cc3[nH]2)cc1
GI50 (786-0 renal): 20.9 µM
TGI (786-0 renal): 65.4 µM
GI50 (A498 renal): > 100 µM
TGI (A498 renal): > 100 µM
GI50 (A549 NSCLC): 56.8 µM
TGI (A549 NSCLC): > 100 µM
GI50 (ACHN renal): > 100 µM
TGI (ACHN renal): > 100 µM
GI50 (BT-549 breast): 96.3 µM
TGI (BT-549 breast): > 100 µM
GI50 (CAKI-1 renal): > 100 µM
TGI (CAKI-1 renal): > 100 µM
GI50 (CCRF-CEM leukemia): 5.77 µM
TGI (CCRF-CEM leukemia): > 100 µM
GI50 (COLO 205 colon): 24.6 µM
TGI (COLO 205 colon): > 100 µM
GI50 (DU-145 prostate): 5.57 µM
TGI (DU-145 prostate): 88.4 µM
GI50 (EKVX NSCLC): > 100 µM
TGI (EKVX NSCLC): > 100 µM
GI50 (HCC-2998 colon): 18.7 µM
TGI (HCC-2998 colon): > 100 µM
GI50 (HCT-116 colon): 16 µM
TGI (HCT-116 colon): > 100 µM
GI50 (HCT-15 colon): > 100 µM
TGI (HCT-15 colon): > 100 µM
GI50 (HL-60(TB) leukemia): > 100 µM
TGI (HL-60(TB) leukemia): > 100 µM
GI50 (HOP-62 NSCLC): 78.4 µM
TGI (HOP-62 NSCLC): > 100 µM
GI50 (HOP-92 NSCLC): 72.6 µM
TGI (HOP-92 NSCLC): > 100 µM
GI50 (HS 578T breast): 31.2 µM
TGI (HS 578T breast): > 100 µM
GI50 (HT29 colon): 17.6 µM
TGI (HT29 colon): > 100 µM
GI50 (IGROV1 ovarian): 81.9 µM
TGI (IGROV1 ovarian): > 100 µM
GI50 (K-562 leukemia): 8.85 µM
TGI (K-562 leukemia): > 100 µM
GI50 (KM12 colon): > 100 µM
TGI (KM12 colon): > 100 µM
GI50 (LOX IMVI melanoma): 4.81 µM
TGI (LOX IMVI melanoma): 18.9 µM
GI50 (M14 melanoma): 57.8 µM
TGI (M14 melanoma): > 100 µM
GI50 (MALME-3M melanoma): 15.6 µM
TGI (MALME-3M melanoma): 43.8 µM
GI50 (MCF7 breast): 5.03 µM
TGI (MCF7 breast): 47.4 µM
GI50 (MDA-MB-231 breast): 10.7 µM
TGI (MDA-MB-231 breast): 40.3 µM
GI50 (MDA-MB-435): 10.1 µM
TGI (MDA-MB-435): 94.9 µM
GI50 (MDA-MB-468 breast): 5.28 µM
TGI (MDA-MB-468 breast): 21.8 µM
GI50 (MOLT-4 leukemia): 4.12 µM
TGI (MOLT-4 leukemia): > 100 µM
GI50 (NCI-H226 lung): > 100 µM
TGI (NCI-H226 lung): > 100 µM
GI50 (NCI-H23 lung): 6.63 µM
TGI (NCI-H23 lung): 28.9 µM
GI50 (NCI-H460 lung): 8.67 µM
TGI (NCI-H460 lung): > 100 µM
GI50 (NCI-H522 lung): 4.3 µM
TGI (NCI-H522 lung): 21.3 µM
GI50 (NCI/ADR-RES ovarian): > 100 µM
TGI (NCI/ADR-RES ovarian): > 100 µM
GI50 (OVCAR-3 ovarian): 7.29 µM
TGI (OVCAR-3 ovarian): 74.4 µM
GI50 (OVCAR-4 ovarian): 15 µM
TGI (OVCAR-4 ovarian): 51.3 µM
GI50 (OVCAR-5 ovarian): 25.5 µM
TGI (OVCAR-5 ovarian): > 100 µM
GI50 (OVCAR-8 ovarian): > 100 µM
TGI (OVCAR-8 ovarian): > 100 µM
GI50 (PC-3 prostate): 13.4 µM
TGI (PC-3 prostate): 39.2 µM
GI50 (RPMI-8226 leukemia): 67.7 µM
TGI (RPMI-8226 leukemia): > 100 µM
GI50 (RXF 393 renal): > 100 µM
TGI (RXF 393 renal): > 100 µM
GI50 (SF-268 CNS): 24.2 µM
TGI (SF-268 CNS): > 100 µM
GI50 (SF-295 CNS): > 100 µM
TGI (SF-295 CNS): > 100 µM
GI50 (SF-539 CNS): > 100 µM
TGI (SF-539 CNS): > 100 µM
GI50 (SK-MEL-2 melanoma): > 100 µM
TGI (SK-MEL-2 melanoma): > 100 µM
GI50 (SK-MEL-28 melanoma): 36.1 µM
TGI (SK-MEL-28 melanoma): > 100 µM
GI50 (SK-MEL-5 melanoma): > 100 µM
TGI (SK-MEL-5 melanoma): > 100 µM
GI50 (SK-OV-3 ovarian): > 100 µM
TGI (SK-OV-3 ovarian): > 100 µM
GI50 (SN12C renal): 38.9 µM
TGI (SN12C renal): > 100 µM
GI50 (SNB-19 CNS): 30.1 µM
TGI (SNB-19 CNS): > 100 µM
GI50 (SNB-75 CNS): 66.5 µM
TGI (SNB-75 CNS): > 100 µM
GI50 (SR leukemia): > 100 µM
TGI (SR leukemia): > 100 µM
GI50 (SW-620 colon): 3.3 µM
TGI (SW-620 colon): 26 µM
GI50 (T-47D breast): 44.5 µM
TGI (T-47D breast): > 100 µM
GI50 (TK-10 renal): > 100 µM
TGI (TK-10 renal): > 100 µM
GI50 (U251 CNS): 25.3 µM
TGI (U251 CNS): > 100 µM
GI50 (UACC-257 melanoma): > 100 µM
TGI (UACC-257 melanoma): > 100 µM
GI50 (UACC-62 melanoma): > 100 µM
TGI (UACC-62 melanoma): > 100 µM
GI50 (UO-31 renal): > 100 µM
TGI (UO-31 renal): > 100 µM

From PubChem BioAssay (NCI)
